Experimental data from publication PMC12817916, “A small-molecule HSP90 inhibitor, NVP-HSP990, alleviates rotavirus infection” (Journal of Virology, 2025).

Experiments:
[1] = test system: MAPK signaling pathway (ERK1/2, p38 MAPK, SAPK/JNK); experiment: Western blot of MAPK components; format: cell-based; conditions: WB; for MAPK activation (especially ERK1/2 and p38 MAPK): 100 nM, 20 h
Method: MA104, Caco-2, and HT-29 cells were mock-infected with PBS, infected with RV Wa or SA11 strains (MOI = 3), or treated with 1 µM C16-PAF (C16) for 1 h. After removing the viruses or C16-PAF and washing cells two times with DMEM, the cells were cultivated with 2 mL DMEM containing 100 nM NVP-HSP990 (+), an equal volume of DMSO (−), or 1 µM C16-PAF at 37°C and 5% CO2 for 20 h. Then, the cells in each well (~5 × 10^5 cells) were lysed with 100 µL RIPA lysis buffer (Beyotime, China) plus protease inhibitor cocktail (Thermo Fisher Scientific, USA). The cell lysates were collected in 1.5 mL EP tubes, sonicated five times for 15 s at 80 watts on ice, and clarified by centrifugation at 12,000 × g for 10 min at 4°C. After protein quantification with a BCA kit (Beyotime, China), the protein samples were mixed with 25 µL 5× SDS loading buffer (Beyotime, China), boiled at 100°C for 5 min, chilled on ice, vortexed for seconds, and centrifuged at 12,000 × g for 3 min at room temperature. Twenty micrograms of protein was subjected to protein electrophoresis in precast 4–20% SDS-PAGE gels (Beyotime, China), and then transferred to 0.22 µm PVDF membranes (Millipore, USA). After blocking with 5% BSA, the membranes were incubated with rabbit antibodies to MAPK components (SAPK/JNK, phospho-SAPK/JNK, p38 MAPK, phospho-p38 MAPK, ERK1/2, phospho-ERK1/2) (CST, USA), rabbit anti-RV VP6/VP7 polyclonal antibodies (CUSABIO, China), or mouse mAb to β-actin (Servicebio, China) as an internal reference. Afterward, the membranes were incubated with horseradish peroxidase-conjugated rat anti-rabbit IgG (CST, USA) or rat anti-mouse IgG (CST, USA). Immunoreactive bands were visualized using enhanced chemiluminescence substrate BeyoECL Plus (Beyotime, China).
Fig 4 NVP-HSP990 inhibited MAPK activation and facilitated expression of tight junction-associated proteins in intestinal cells. […]
Supplementary Fig. 7. […] The grayscale values of WB bands were quantified, and the relative protein levels of MAPK components were normalized to β-actin. […]

HSP90β = conditions: targets the N-terminal of HSP90β; cited from earlier work
[2] = test system: tight junctions (ZO-1, ZO-2, claudin-1) in Caco-2 cells; experiment: Tight junction-associated proteins and structure (WB, IFA); format: cell-based, Human; conditions: Wa or SA11 MOI = 3, 100 nM
Method: The cells were then washed with PBS, fixed in 4% paraformaldehyde for 20 min, followed by permeabilization in 0.5% Triton X-100 for 10 min and blocking with 5% BSA (Beyotime, China) for 1 h at room temperature. The cells were then incubated with rabbit anti-ZO-1 monoclonal antibody (CST, USA) (1:100) or rabbit anti-RV VP6 polyclonal antibodies (CUSABIO, China) (1:50) for 2 h at room temperature, washed twice with PBS, and incubated with Cy3-conjugated goat anti-rabbit antibodies (Beyotime, China) (1:500) for 1 h at room temperature. In some experiments, the cells were also stained with FITC-conjugated goat anti-RV antibodies (Virostat, USA) (1:100) for 1 h at room temperature and followed by 5 µg/mL 2-(4-amidinophenyl)-6-indolecarbamidine dihydrochloride (DAPI) (Sigma-Aldrich, USA) staining for 10 min. […] Minimal post-processing (image cropping and annotations) was applied through Adobe Illustrator 2019 (Adobe Systems, USA) to ensure readability. […]
MA104, Caco-2, and HT-29 cells were mock-infected with PBS, infected with RV Wa or SA11 strains (MOI = 3), or treated with 1 µM C16-PAF (C16) for 1 h. […] After protein quantification with a BCA kit (Beyotime, China), the protein samples were mixed with 25 µL 5× SDS loading buffer (Beyotime, China), boiled at 100°C for 5 min, chilled on ice, vortexed for seconds, and centrifuged at 12,000 × g for 3 min at room temperature. […]

## COc1cccc(-c2cc(F)ccc2[C@H]2Cc3nc(N)nc(C)c3C(=O)N2)n1 [NVP-HSP990]
[1]; Caco-2 cells, 1 µM C16-PAF, 100 nM NVP-HSP990, 20 h
  MAPK activation caused by non-infectious factors (drug stimulation): potently inhibited
[1]; RV-infected Caco-2 and HT-29 cells
  MAPK activation (especially ERK1/2 and p38 MAPK): significantly inhibited
[1]; RV-infected MA104 cells
  MAPK activation (especially ERK1/2 and p38 MAPK): not
HSP90β
  IC50: 800 pM
[2]; 18 h, ZO-1 immunostaining
  structural disruption of tight junctions in RV infection: effectively restored
[2]; 20 h, WB
  expression of tight junction-associated proteins ZO-1, ZO-2, and claudin-1: facilitated the expression
